Test results as given in patent US20230009323A1, “COMPOUNDS AND METHODS FOR THE TREATMENT OF CRYPTOSPORIDIOSIS” (The Broad Institute, Inc., priority 2019, published 2023).

Key:
[1] = system: C. parvum Iowa isolate (Bunch Grass Farms); experiment: C. parvum time-kill curve assay in HCT-8 cells; assay type: cell-based, Cryptosporidium parvum
Experimental: Time-kill curve assays were performed in 384-well plates using C. parvum Iowa isolate oocysts (Bunch Grass Farms, Deary, Id.) following infection of HCT-8 cell monolayers as described in Jumani, R. S. et al. Antimicrobial agents and chemotherapy 62, e01505-01517 (2018), hereby incorporated by reference in its entirety. […] Single-phase exponential decay curves were fit using GraphPad Prism software version 6.01 after normalizing the percentage of host cells infected to the vehicle control value at each time point, which isolates the effect of compound treatment from the spontaneous reduction in parasite numbers that occurs in this culture system.

[2] = target: recombinant C. hominis PheRS (ChPheRS) (Cryptosporidium hominis, UniProt A0A0S4TD72); experiment: C. hominis PheRS aminoacylation assay; assay type: biochemical; details: aminoacylation activity
Experimental: The protein sequences of C. hominis PheRS alpha (Chro.30378) and beta subunits (Chro.80385) were retrieved from the Crypto DB (https://cryptodb.org/cryptodb/). Genes were inserted to pETM 11 and pETM 20 vectors and both alpha and beta subunits were co-expressed in E. coli B834 competent cells. Recombinant proteins were expressed by growing cells at 37° C. to OD600 of 0.6-0.8, followed by induction with 0.6 mM isopropyl β-d-1-thiogalactopyranoside (IPTG). The cells were later harvested by centrifugation at 5,000×g and cell pellet suspended in a buffer containing 50 mM Tris-HCl (pH 8.8), 200 mM NaCl, 4 mM [3-mercaptoethanol, 10% (v/v) glycerol, 0.1 mg ml-1 lysozyme and 1 mM phenylmethylsulfonyl fluoride (PMSF)]. The bacterial cells were lysed using sonication and cleared by centrifugation at 20,000×g for 45 mins. […]

[3] = system: C. parvum (Iowa isolate); experiment: EdU incorporation (DNA synthesis) assay of intracellular development in HCT-8 cells; assay type: cell-based, Cryptosporidium parvum; details: 2×EC90; FIG. 6A legend says EC90
Experimental: DNA synthesis was assayed during intracellular development of C. parvum (Iowa isolate) within HCT-8 cells by measuring incorporation of the thymidine analogue 5-ethynyl-2′-deoxyuridine (EdU) using epifluorescence microscopy as described in Jumani, R. S. et al. Nat Commun 10, 1862, doi:10.1038/s41467-019-09880-w (2019), hereby incorporated by reference in its entirety. HCT-8 cells were grown to >90% confluence in 96-well plates coated with 50 μg mL^−1 fibronectin (BD Pharmingen, catalog #354008), and then infected using the method described above with ˜5.5×10^4 C. parvum Iowa isolate oocysts per well. Compound 11 was added at 2×EC90 3 hours after infection, followed by incubation for 6 hours and then addition of […] EdU. After incubation for two more hours, the monolayers were washed and fixed with 4% formaldehyde in saline. Cells were then permeabilized, and stained with FITC-Vicia villosa lectin, Hoechst 33258, and for incorporation of EdU using the Click-iT assay kit (Thermo Fisher Scientific). Images were acquired by focusing on the parasite focal plane on top of the host cell monolayer using a 40× objective (0.7 NA), and parasitophorous vacuoles and EdU positive vacuoles were quantified using NIH ImageJ software.

[4] = system: cytosolic PfcPheRS; details: previously reported; cited from earlier work
[5] = system: C. parvum (Field Isolate) WSU; experiment: C. parvum field isolate (WSU) growth in HCT-8 cells; assay type: cell-based; details: Cryptosporidium parvum
Experimental: Studies using farm C. parvum isolates and the C. hominis TU502 isolate were performed by Calibr at Scripps Research (La Jolla, Calif.) in 1,536-well plates using a slightly modified immunofluorescence assay as described in Love, M. S. et al. PLoS neglected tropical diseases 11, e0005373, doi:10.1371/journal.pntd.0005373 (2017), hereby incorporated by reference in its entirety. HCT-8 cell culture medium was replaced with RPMI 1640 medium supplemented with 2% heat-inactivated horse serum, 100 U·mL^−1 penicillin, and […] 24 h prior to infection with the indicated isolate. The C. parvum Iowa isolate was included as a reference in all experiments. Imaging was performed using a Cellnsight CX5 High Content screening platform (Thermo Scientific) with a 10× objective and acquisition of one microscopic field per well. Images were processed using HCS Studio Scan software, and the selected-object count (HCT-8 cells) and spot count (parasitophorous vacuoles) were analyzed in Genedata Screener (version 13.0; Standard). Dose-response curves and EC50 values were calculated using the Smart Fit function of Genedata Analyzer.

COc1ccc(NC(=O)N2CCCCN3[C@H](CN(C)C)[C@H](c4ccc(C#Cc5ccccc5)cc4)[C@@H]3C2)cc1 [Compound 11, (8R,9S,10S)-10-((dimethylamino)methyl)-N-(4-methoxyphenyl)-9-(4-(phenylethynyl)phenyl)-1,6-diazabicyclo[6.2.0]decane-6-carboxamide]
parasites per nucleus at 80 h ([1]; compound at EC50): ~60% | parasites per nucleus at 80 h ([1]; compound at EC90): ~30% | time required to eliminate 99.9% of parasites ([1]; normalized to vehicle control): ~95 h | IC50 [2]: 60 nM | intracellular parasite development (EdU incorporation) [3]: strongly inhibited intracellular parasite development | IC50 [4]: 23 nM | EC50 [5]: 23 nM
